# Results: ChEMBL document CHEMBL5614428, “Synthesis and antibacterial activities of heterocyclic ring-fused 20(S)-protopanaxadiol derivatives” (Bioorg Med Chem, 2024)
# Key:
# Staphylococcus aureus [1] = test: Antibacterial activity against methicillin-resistant Staphylococcus aureus USA300 assessed as inhibition of bacterial growth incubated for 18 hrs by two fold serial dilution assay; assay type: functional
# Staphylococcus aureus [2] = test: Antibacterial activity against Staphylococcus aureus Newman assessed as inhibition of bacterial growth incubated for 18 hrs by two fold serial dilution assay; assay type: functional
Structure (SMILES),MIC (Staphylococcus aureus [1]) [µg/mL],MIC (Staphylococcus aureus [2]) [µg/mL]
CC1(C)c2nc3ccccc3nc2C[C@]2(C)[C@H]3C[C@@H](O)[C@@H]4[C@@H]([C@@](C)(O)CCC(=O)Nc5ccccc5)CC[C@@]4(C)[C@]3(C)CC[C@@H]12,> 64,> 64
CC1(C)c2oncc2C[C@]2(C)[C@H]3C[C@@H](O)[C@@H]4[C@@H]([C@@](C)(O)CCCO)CC[C@@]4(C)[C@]3(C)CC[C@@H]12,> 64,> 64
Cc1nc2c(o1)C(C)(C)[C@@H]1CC[C@]3(C)[C@H](C[C@@H](O)[C@@H]4[C@@H]([C@@](C)(O)CCCO)CC[C@]43C)[C@@]1(C)C2,> 64,> 64
CCCCNC(=O)CC[C@](C)(O)[C@H]1CC[C@]2(C)[C@@H]1[C@H](O)C[C@@H]1[C@@]3(C)Cc4nc5ccccc5nc4C(C)(C)[C@@H]3CC[C@]12C,> 64,> 64
CC1(C)c2nc3ccccc3nc2C[C@]2(C)[C@H]3C[C@@H](O)[C@@H]4[C@@H]([C@@](C)(O)CCC(=O)Nc5ccc6nccnc6c5)CC[C@@]4(C)[C@]3(C)CC[C@@H]12,> 64,> 64
CC1(C)c2nccnc2C[C@]2(C)[C@H]3C[C@@H](O)[C@@H]4[C@@H]([C@@](C)(O)CCCO)CC[C@@]4(C)[C@]3(C)CC[C@@H]12,> 64,> 64
CC1(C)c2nc3ccccc3nc2C[C@]2(C)[C@H]3C[C@@H](O)[C@@H]4[C@@H]([C@@](C)(O)CCC(=O)NC5CCCC5)CC[C@@]4(C)[C@]3(C)CC[C@@H]12,> 64,> 64
CC1(C)c2nc3ccccc3nc2C[C@]2(C)[C@H]3C[C@@H](O)[C@@H]4[C@@H]([C@]5(C)CCC(=O)O5)CC[C@@]4(C)[C@]3(C)CC[C@@H]12,8,4
CC1(C)c2nc(N)ncc2C[C@]2(C)[C@H]3C[C@@H](O)[C@@H]4[C@@H]([C@@](C)(O)CCCO)CC[C@@]4(C)[C@]3(C)CC[C@@H]12,32,16
COC(=O)CC[C@](C)(O)[C@H]1CC[C@]2(C)[C@@H]1[C@H](O)C[C@@H]1[C@@]3(C)Cc4nc5ccccc5nc4C(C)(C)[C@@H]3CC[C@]12C,> 64,> 64
CC1(C)c2nc3ccccc3nc2C[C@]2(C)[C@H]3C[C@@H](O)[C@@H]4[C@@H]([C@@](C)(O)CCC(=O)NC5CCCCC5)CC[C@@]4(C)[C@]3(C)CC[C@@H]12,> 64,> 64
CCCNC(=O)CC[C@](C)(O)[C@H]1CC[C@]2(C)[C@@H]1[C@H](O)C[C@@H]1[C@@]3(C)Cc4nc5ccccc5nc4C(C)(C)[C@@H]3CC[C@]12C,> 64,> 64
CC1(C)c2[nH]c3ccccc3c2C[C@]2(C)[C@H]3C[C@@H](O)[C@@H]4[C@@H]([C@@](C)(O)CCCO)CC[C@@]4(C)[C@]3(C)CC[C@@H]12,32,4
CC1(C)c2nc3ccccc3nc2C[C@]2(C)[C@H]3C[C@@H](O)[C@@H]4[C@@H]([C@@](C)(O)CCC(=O)O)CC[C@@]4(C)[C@]3(C)CC[C@@H]12,16,16
CC1(C)c2c(cnc3cccn23)C[C@]2(C)[C@H]3C[C@@H](O)[C@@H]4[C@@H]([C@@](C)(O)CCCO)CC[C@@]4(C)[C@]3(C)CC[C@@H]12,> 64,4
CC1(C)c2nc(N)sc2C[C@]2(C)[C@H]3C[C@@H](O)[C@@H]4[C@@H]([C@@](C)(O)CCCO)CC[C@@]4(C)[C@]3(C)CC[C@@H]12,> 64,16
CC1(C)c2nc3ccccc3nc2C[C@]2(C)[C@H]3C[C@@H](O)[C@@H]4[C@@H]([C@]5(C)CCCO5)CC[C@@]4(C)[C@]3(C)CC[C@@H]12,> 64,> 64
CC1(C)c2nc3ccccc3nc2C[C@]2(C)[C@H]3C[C@@H](O)[C@@H]4[C@@H]([C@@](C)(O)CCCO)CC[C@@]4(C)[C@]3(C)CC[C@@H]12,8,4
